Non-standard residues stand in square brackets, D forms with d. Residues, ends and D or L forms follow the SMILES beside them.

In one assay the target is T1, Galanin receptor type 3 (Homo sapiens, UniProt O60755).
T1 sequence (O60755 whole entry): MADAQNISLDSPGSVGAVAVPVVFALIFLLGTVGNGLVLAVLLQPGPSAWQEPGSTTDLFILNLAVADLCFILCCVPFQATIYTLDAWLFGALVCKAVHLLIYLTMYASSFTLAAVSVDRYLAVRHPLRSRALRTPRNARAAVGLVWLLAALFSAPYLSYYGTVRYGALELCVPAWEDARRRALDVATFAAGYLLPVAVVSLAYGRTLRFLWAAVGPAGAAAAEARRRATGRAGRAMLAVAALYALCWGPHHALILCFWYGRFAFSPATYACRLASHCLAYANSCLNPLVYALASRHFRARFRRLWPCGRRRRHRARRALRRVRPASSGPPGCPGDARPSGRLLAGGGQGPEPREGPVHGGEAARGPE
On to `CC[C@H](C)[C@H](NC(=O)[C@H](C)NC(=O)[C@H](Cc1c[nH]cn1)NC(=O)[C@@H]1CCCN1C(=O)CNC(=O)[C@H](CC(C)C)NC(=O)[C@H](CC(C)C)NC(=O)[C@H](Cc1ccc(O)cc1)NC(=O)CNC(=O)[C@H](C)NC(=O)[C@H](CO)NC(=O)[C@H](CC(N)=O)NC(=O)[C@H](CC(C)C)NC(=O)[C@@H](NC(=O)[C@@H](N)Cc1c[nH]c2ccccc12)[C@@H](C)O)C(=O)N[C@@H](CC(=O)O)C(=O)N[C@@H](CC(N)=O)C(=O)N[C@@H](Cc1c[nH]cn1)C(=O)N[C@@H](CCCNC(=N)N)C(=O)N[C@@H](CO)C(=O)N[C@@H](Cc1ccccc1)C(=O)N[C@@H](CO)C(=O)N[C@@H](CC(=O)O)C(=O)N[C@@H](CCCCN)C(=O)N[C@@H](Cc1c[nH]cn1)C(=O)NCC(=O)N[C@@H](CC(C)C)C(=O)N[C@H](C(N)=O)[C@@H](C)O` [Galanin Porcine 2-29], for which affinity was put at a Ki of 60.3 nM.

The target of another assay is T2, Galanin receptor type 2 (Homo sapiens, UniProt O43603).
T2 sequence (O43603 whole entry): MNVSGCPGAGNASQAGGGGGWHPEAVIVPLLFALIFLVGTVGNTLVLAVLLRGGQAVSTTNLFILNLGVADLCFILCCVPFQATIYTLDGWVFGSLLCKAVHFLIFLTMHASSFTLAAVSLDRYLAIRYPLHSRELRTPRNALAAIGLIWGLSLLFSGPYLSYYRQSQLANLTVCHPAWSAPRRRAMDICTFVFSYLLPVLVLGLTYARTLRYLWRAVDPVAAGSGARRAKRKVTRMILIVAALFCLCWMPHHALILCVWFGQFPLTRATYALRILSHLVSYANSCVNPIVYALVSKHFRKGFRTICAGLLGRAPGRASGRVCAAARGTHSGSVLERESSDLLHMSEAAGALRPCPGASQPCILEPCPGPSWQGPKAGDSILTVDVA
Turning to H-GWTLNSAGYLLGPPPALALA-NH2 [M40], the affinity, expressed as Ki, was 4.07 nM.

Regarding `CC[C@H](C)[C@H](NC(=O)[C@H](C)NC(=O)[C@H](Cc1c[nH]cn1)NC(=O)[C@@H]1CCCN1C(=O)CNC(=O)[C@H](CC(C)C)NC(=O)[C@H](CC(C)C)NC(=O)[C@H](Cc1ccc(O)cc1)NC(=O)CNC(=O)[C@H](C)NC(=O)[C@H](CO)NC(=O)[C@H](CC(N)=O)NC(=O)[C@H](CC(C)C)NC(=O)[C@@H](NC(=O)[C@@H](N)Cc1c[nH]c2ccccc12)[C@@H](C)O)C(=O)N[C@@H](CC(=O)O)C(=O)N[C@@H](CC(N)=O)C(=O)N[C@@H](Cc1c[nH]cn1)C(=O)N[C@@H](CCCNC(=N)N)C(=O)N[C@@H](CO)C(=O)N[C@@H](Cc1ccccc1)C(=O)N[C@@H](CO)C(=O)N[C@@H](CC(=O)O)C(=O)N[C@@H](CCCCN)C(=O)N[C@@H](Cc1c[nH]cn1)C(=O)NCC(=O)N[C@@H](CC(C)C)C(=O)N[C@H](C(N)=O)[C@@H](C)O` [Galanin Porcine 2-29], the affinity, expressed as Ki, was 2.88 nM.

Consider `CC(C)C[C@H](NC(=O)[C@H](CC(C)C)NC(=O)[C@H](Cc1ccc(O)cc1)NC(=O)CNC(=O)[C@H](C)NC(=O)[C@H](CO)NC(=O)[C@H](CC(N)=O)NC(=O)[C@H](CC(C)C)NC(=O)[C@@H](NC(=O)[C@H](Cc1c[nH]c2ccccc12)NC(=O)CN)[C@@H](C)O)C(=O)NCC(=O)N1CCC[C@H]1C(=O)N1CCC[C@H]1C(=O)N1CCC[C@H]1C(=O)NCC(=O)N[C@@H](Cc1ccccc1)C(=O)N[C@@H](CO)C(=O)N1CCC[C@H]1C(=O)N[C@@H](Cc1ccccc1)C(=O)N[C@@H](CCCN=C(N)N)C(N)=O`, for which the affinity corresponds to a Ki of 1.95 nM.

`COc1ccccc1N(CCOc1ccc(C)cc1)C(=O)CN1CCCCC1` [CAS_3043476]: the Ki (usually a dissociation constant, usually derived from enzyme kinetics or from competition with a known ligand) is 1.07 nM.

`CC[C@H](C)[C@H](NC(=O)[C@H](C)NC(=O)[C@H](Cc1c[nH]cn1)NC(=O)[C@@H]1CCCN1C(=O)CNC(=O)[C@H](CC(C)C)NC(=O)[C@H](CC(C)C)NC(=O)[C@H](Cc1ccc(O)cc1)NC(=O)CNC(=O)[C@H](C)NC(=O)[C@H](CO)NC(=O)[C@H](CC(N)=O)NC(=O)[C@H](CC(C)C)NC(=O)[C@@H](N)[C@@H](C)O)C(=O)N[C@@H](CC(=O)O)C(=O)N[C@@H](CC(N)=O)C(=O)N[C@@H](Cc1c[nH]cn1)C(=O)N[C@@H](CCCNC(=N)N)C(=O)N[C@@H](CO)C(=O)N[C@@H](Cc1ccccc1)C(=O)N[C@@H](Cc1c[nH]cn1)C(=O)N[C@@H](CC(=O)O)C(=O)N[C@@H](CCCCN)C(=O)N[C@@H](Cc1ccc(O)cc1)C(=O)NCC(=O)N[C@@H](CC(C)C)C(=O)N[C@@H](C)C(N)=O` [Galanin (3-29), porcine] gave a Ki of 1000 nM.

Molecule `CC(C)C[C@H](NC(=O)[C@H](CC(C)C)NC(=O)[C@@H](Cc1c[nH]c2ccccc12)NC(=O)[C@H](Cc1ccccc1)NC(=O)[C@@H](Cc1c[nH]c2ccccc12)NC(=O)[C@H](CCC(N)=O)NC(=O)[C@H](CCC(N)=O)NC(=O)[C@@H]1CCCN1C(=O)[C@H](CCCCN)NC(=O)[C@@H]1CCCN1C(=O)[C@@H](CCCN=C(N)N)NC(=O)[C@@H]1CCCN1C(=O)CNC(=O)[C@H](CC(C)C)NC(=O)[C@H](CC(C)C)NC(=O)[C@H](Cc1ccc(O)cc1)NC(=O)CNC(=O)[C@H](C)NC(=O)[C@H](CO)NC(=O)[C@H](CC(N)=O)NC(=O)[C@H](CC(C)C)NC(=O)[C@@H](NC(=O)[C@H](Cc1c[nH]c2ccccc12)NC(=O)CN)[C@@H](C)O)C(N)=O` [Gal(1-13)-Std I] (H-GWTLNSAGYLLGP[dR]PKPQQ[dW]F[dW]LL-NH2) displayed a Ki of 0.63 nM.

Turning to `CC[C@H](C)[C@H](NC(=O)[C@H](C)NC(=O)[C@H](Cc1cnc[nH]1)NC(=O)[C@@H]1CCCN1C(=O)CNC(=O)[C@H](CC(C)C)NC(=O)[C@H](CC(C)C)NC(=O)[C@H](Cc1ccc(O)cc1)NC(=O)CNC(=O)[C@H](C)NC(=O)[C@H](CO)NC(=O)[C@H](CC(N)=O)NC(=O)[C@H](CC(C)C)NC(=O)[C@@H](NC(=O)[C@H](Cc1c[nH]c2ccccc12)NC(=O)CN)[C@@H](C)O)C(=O)N[C@@H](CC(=O)O)C(=O)N[C@@H](CC(N)=O)C(=O)N[C@@H](Cc1cnc[nH]1)C(N)=O` [Galanin rat], the inhibition constant (Ki) came out at 1.62 nM.

The record behind these values is BindingDB's records for doi:10.1016/s0196-9781(98)00133-8 (Synaptic Pharmaceutical, 1998).
